According to PubChem BioAssay AID256 (DTP/NCI, 2004):
“And” between values parts separate entries of the source, which are not always exact repeats. Equal entries are not always repeated. Inconclusive results and toxic doses are left out. The calls were made as follows: active = survival T/C of 150% or more; inactive = T/C below 125% in these data.

System: CD2F1 mice, L1210 leukemia ip, survival T/C
Experiment: NCI In Vivo Anticancer Drug Screen. Data for tumor model L1210 Leukemia (intraperitoneal) in CD2F1 (CDF1) mice
Settings: higher = longer survival
How it was run: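 Each value reflects a quotient of treated over vehicle control outcomes in mice with a transplanted tumor.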

[1] = endpoint: mean survival time, dose: 100.0 mg/kg/injection, schedule: Q04DX003 (ip), vehicle: saline with Tween-80
[2] = endpoint: mean survival time, dose: 200.0 mg/kg/injection, schedule: Q04DX003 (ip), vehicle: saline with Tween-80
[3] = endpoint: mean survival time, dose: 400.0 mg/kg/injection, schedule: Q04DX003 (ip), vehicle: saline with Tween-80
[4] = endpoint: mean survival time, dose: 12.5 mg/kg/injection, schedule: Q01DX009 (ip), vehicle: saline
[5] = endpoint: mean survival time, dose: 25.0 mg/kg/injection, schedule: Q01DX009 (ip), vehicle: saline
[6] = endpoint: mean survival time, dose: 50.0 mg/kg/injection, schedule: Q01DX009 (ip), vehicle: saline
[7] = endpoint: mean survival time, dose: 100.0 mg/kg/injection, schedule: Q01DX009 (ip), vehicle: saline with Tween-80
[8] = endpoint: mean survival time, dose: 200.0 mg/kg/injection, schedule: Q01DX009 (ip), vehicle: saline with Tween-80
[9] = endpoint: mean survival time, dose: 400.0 mg/kg/injection, schedule: Q01DX009 (ip), vehicle: saline with Tween-80
[10] = endpoint: mean survival time, dose: 100.0 mg/kg/injection, schedule: Q04DX003 (ip), vehicle: saline sonified
[11] = endpoint: mean survival time, dose: 200.0 mg/kg/injection, schedule: Q04DX003 (ip), vehicle: saline sonified
[12] = endpoint: mean survival time, dose: 100.0 mg/kg/injection, schedule: Q01DX001 (ip), vehicle: saline with Tween-80
[13] = endpoint: mean survival time, dose: 400.0 mg/kg/injection, schedule: Q01DX001 (ip), vehicle: saline with Tween-80
[14] = endpoint: mean survival time, dose: 200.0 mg/kg/injection, schedule: Q01DX001 (ip), vehicle: saline with Tween-80

Measured: T/C

Nc1nc(N)c2[nH]cnc2n1
inactive: endpoint: mean survival time, dose: 12.5 mg/kg/injection, schedule: Q01DX005 (ip), vehicle: Klucel (hydroxypropylcellulose) (HPC) 101 % of control | endpoint: mean survival time, dose: 25.0 mg/kg/injection, schedule: Q01DX005 (ip), vehicle: Klucel (hydroxypropylcellulose) (HPC) 101 % of control | endpoint: mean survival time, dose: 50.0 mg/kg/injection, schedule: Q01DX005 (ip), vehicle: Klucel (hydroxypropylcellulose) (HPC) 106 % of control | endpoint: mean survival time, dose: 50.0 mg/kg/injection, schedule: Q04DX003 (ip), vehicle: saline with Tween-80 95 % of control | endpoint: mean survival time, dose: 100.0 mg/kg/injection, schedule: Q01DX005 (ip), vehicle: Klucel (hydroxypropylcellulose) (HPC) 110 % of control | [1] 95 % of control | [2] 97 % of control | [3] 97 % of control

CCCCCCCCCCCCNC(=O)C[n+]1cccc(C(=O)NC)c1
inactive: [4] 98 % of control | endpoint: mean survival time, dose: 18.8 mg/kg/injection, schedule: Q04DX003 (ip), vehicle: saline 98 % of control | [5] 101 % of control | endpoint: mean survival time, dose: 37.5 mg/kg/injection, schedule: Q04DX003 (ip), vehicle: saline 95 % of control | [6] 98 % of control | endpoint: mean survival time, dose: 75.0 mg/kg/injection, schedule: Q04DX003 (ip), vehicle: saline 101 % of control

CCS(=O)(=O)/C=C(\I)C(C)(C)C
inactive: [7] 97 % of control | [1] 98 % of control | [8] 102 % of control | [2] 102 % of control | [9] 100 % of control | [3] 95 % of control

C1OC1C1CO1 (stereo not drawn)
inactive: endpoint: mean survival time, dose: 1.25 mg/kg/injection, schedule: Q01DX009 (ip), vehicle: saline 97 % of control and 98 % of control | endpoint: mean survival time, dose: 2.5 mg/kg/injection, schedule: Q01DX009 (ip), vehicle: saline 95 % of control and 100 % of control | endpoint: mean survival time, dose: 5.0 mg/kg/injection, schedule: Q01DX009 (ip), vehicle: saline 96 % of control and 103 % of control | endpoint: mean survival time, dose: 10.0 mg/kg/injection, schedule: Q01DX009 (ip), vehicle: saline 98 % of control and 105 % of control | endpoint: mean survival time, dose: 20.0 mg/kg/injection, schedule: Q01DX009 (ip), vehicle: saline 103 % of control and 112 % of control | endpoint: mean survival time, dose: 40.0 mg/kg/injection, schedule: Q01DX009 (ip), vehicle: saline 108 % of control

CCOC(=O)CC(=O)c1ccc(C)cc1
inactive: [7] 96 % of control | [8] 105 % of control | [9] 89 % of control

c1ccc(SSc2ccccc2)cc1
inactive: [1] 100 % of control

CN1NC=Nc2c(SCc3ccccc3)ncnc21
inactive: endpoint: mean survival time, dose: 75.0 mg/kg/injection, schedule: Q01DX001 (ip), vehicle: other 98 % of control

CCOC(=O)/C(=C/C(C#N)=C/N(C)C)CC
inactive: [10] 93 % of control | [11] 108 % of control

O=c1c2ccc(Cl)cc2[nH]c(=S)n1-c1ccc(Cl)cc1
inactive: [1] 104 % of control | [2] 93 % of control | [3] 102 % of control

NCCN
inactive: [12] 106 % of control | [13] 97 % of control

OCC1OC(n2cnc3cc4ccccc4cc32)C(O)C1O (stereo not drawn)
inactive: endpoint: median survival time, dose: 13.25 mg/kg/injection, schedule: Q01DX005 (ip), vehicle: saline with Tween-80 100 % of control | endpoint: median survival time, dose: 26.5 mg/kg/injection, schedule: Q01DX005 (ip), vehicle: saline with Tween-80 98 % of control | endpoint: median survival time, dose: 53.0 mg/kg/injection, schedule: Q01DX005 (ip), vehicle: saline with Tween-80 88 % of control | endpoint: median survival time, dose: 106.0 mg/kg/injection, schedule: Q01DX005 (ip), vehicle: saline with Tween-80 91 % of control

c1ccc(N=NC2(c3ccccc3)CC(c3ccccc3)=NN(c3ccccc3)C2NNc2ccccc2)cc1 (stereo not drawn)
inactive: [12] 96 % of control | [14] 102 % of control | [13] 96 % of control

CC(=O)C1C(=O)CC(C)(O)C(C(C)=O)C1c1ccccc1 (stereo not drawn)
inactive: [7] 93 % of control | [1] 101 % of control | [8] 96 % of control | [2] 101 % of control | [9] 94 % of control | [3] 103 % of control

CCCCNC(=O)CCC(=O)O
inactive: [7] 109 % of control | [1] 99 % of control | [8] 94 % of control | [2] 99 % of control | [9] 96 % of control | [3] 95 % of control

CC1(OC(=O)c2ccccc2)CC(C)(C)[N+]([O-])=N1 (stereo not drawn)
inactive: endpoint: mean survival time, dose: 25.0 mg/kg/injection, schedule: Q01DX009 (ip), vehicle: Klucel (hydroxypropylcellulose) (HPC) 96 % of control | endpoint: mean survival time, dose: 50.0 mg/kg/injection, schedule: Q01DX009 (ip), vehicle: Klucel (hydroxypropylcellulose) (HPC) 96 % of control | endpoint: mean survival time, dose: 100.0 mg/kg/injection, schedule: Q01DX009 (ip), vehicle: Klucel (hydroxypropylcellulose) (HPC) 100 % of control | endpoint: mean survival time, dose: 200.0 mg/kg/injection, schedule: Q01DX009 (ip), vehicle: Klucel (hydroxypropylcellulose) (HPC) 91 % of control

CC(C(=O)O)=C(c1ccccc1)c1ccccc1
inactive: [1] 90 % of control | [2] 93 % of control | [3] 87 % of control

FCCc1cccc(C(F)(F)F)c1
inactive: [12] 103 % of control | [10] 94 % of control | [14] 101 % of control | [11] 98 % of control | [13] 101 % of control | endpoint: mean survival time, dose: 400.0 mg/kg/injection, schedule: Q04DX003 (ip), vehicle: saline sonified 98 % of control

CC(C)C(O)(C(=O)O)C(C)O (stereo not drawn)
inactive: endpoint: mean survival time, dose: 12.5 mg/kg/injection, schedule: Q01DX009 (ip), vehicle: water 96 % of control | endpoint: mean survival time, dose: 25.0 mg/kg/injection, schedule: Q01DX009 (ip), vehicle: water 94 % of control | endpoint: mean survival time, dose: 50.0 mg/kg/injection, schedule: Q01DX009 (ip), vehicle: water 88 % of control | endpoint: mean survival time, dose: 100.0 mg/kg/injection, schedule: Q01DX009 (ip), vehicle: water 89 % of control

CC/C(=C(/CC)c1ccc(OP(=O)(Cl)N(CCCl)CCCl)cc1)c1ccc(OP(=O)(Cl)N(CCCl)CCCl)cc1 (stereo not drawn)
inactive: endpoint: median survival time, dose: 31.25 mg/kg/injection, schedule: Q01DX001 (ip), vehicle: distilled water + Tween-80 108 % of control | endpoint: median survival time, dose: 62.5 mg/kg/injection, schedule: Q01DX001 (ip), vehicle: distilled water + Tween-80 101 % of control | endpoint: median survival time, dose: 125.0 mg/kg/injection, schedule: Q01DX001 (ip), vehicle: distilled water + Tween-80 97 % of control | endpoint: median survival time, dose: 250.0 mg/kg/injection, schedule: Q01DX001 (ip), vehicle: distilled water + Tween-80 100 % of control | endpoint: median survival time, dose: 500.0 mg/kg/injection, schedule: Q01DX001 (ip), vehicle: distilled water + Tween-80 100 % of control

O=S(=O)(O)SCCN1CCCC1
inactive: [4] 107 % of control | endpoint: mean survival time, dose: 12.5 mg/kg/injection, schedule: Q04DX003 (ip), vehicle: saline sonified 101 % of control | [5] 104 % of control | endpoint: mean survival time, dose: 25.0 mg/kg/injection, schedule: Q04DX003 (ip), vehicle: saline sonified 98 % of control | [6] 102 % of control | endpoint: mean survival time, dose: 50.0 mg/kg/injection, schedule: Q04DX003 (ip), vehicle: saline sonified 96 % of control

CCOC(=O)c1ccc(NC(=O)Nc2cc(Cl)c(Cl)cc2C)cc1
inactive: endpoint: mean survival time, dose: 3.13 mg/kg/injection, schedule: Q01DX001 (ip), vehicle: saline with Tween-80 93 % of control | endpoint: mean survival time, dose: 3.13 mg/kg/injection, schedule: Q04DX003 (ip), vehicle: saline with Tween-80 90 % of control | endpoint: mean survival time, dose: 6.25 mg/kg/injection, schedule: Q01DX001 (ip), vehicle: saline with Tween-80 92 % of control | endpoint: mean survival time, dose: 6.25 mg/kg/injection, schedule: Q01DX009 (ip), vehicle: saline with Tween-80 86 % of control and 89 % of control | endpoint: mean survival time, dose: 6.25 mg/kg/injection, schedule: Q04DX002 (ip), vehicle: saline with Tween-80 91 % of control and 97 % of control | endpoint: mean survival time, dose: 6.25 mg/kg/injection, schedule: Q04DX003 (ip), vehicle: saline with Tween-80 89 % of control | endpoint: mean survival time, dose: 12.5 mg/kg/injection, schedule: Q01DX001 (ip), vehicle: saline with Tween-80 93 % of control | endpoint: mean survival time, dose: 12.5 mg/kg/injection, schedule: Q01DX009 (ip), vehicle: saline with Tween-80 86 % of control | endpoint: mean survival time, dose: 12.5 mg/kg/injection, schedule: Q04DX002 (ip), vehicle: saline with Tween-80 91 % of control | endpoint: mean survival time, dose: 25.0 mg/kg/injection, schedule: Q04DX003 (ip), vehicle: saline with Tween-80 90 % of control | endpoint: mean survival time, dose: 50.0 mg/kg/injection, schedule: Q04DX002 (ip), vehicle: saline with Tween-80 91 % of control | [7] 88 % of control | endpoint: mean survival time, dose: 400.0 mg/kg/injection, schedule: Q04DX002 (ip), vehicle: saline with Tween-80 88 % of control
